Source: the supplement of paper PMC11061612

Legend:
M059J (Glioblastoma) = assay: Bliss excess, mean over the matrix (fraction); higher = more synergy
How it was run: (§1)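 Cell lines grown in DMEM/F12 or RPMI with 10% FBS were plated in 1536-well plates and held 24 hours at 37°C, 5% CO2 before 72 hours of exposure to two-drug dose matrices, with DMSO typically at 0.2%. CellTiter-Glo 2.0 luminescence gave viability, which was converted to inhibition. Vehicle wells were set to 0 and blank wells to 1. Combination Emax is the second-highest inhibition in the matrix, and Bliss excess is the observed combination effect minus the expected EA + EB − EA·EB, where EA and EB are the single-agent effects.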

[1] = system: PC-3 (Prostate Carcinoma); assay: as above
How it was run: as §1

CN(C)CCCOc1ccc(-c2ccc3ncc4c(c3c2)n(C2CCOCC2)c(=O)n4C)cn1 [AZD0156] + CCN(CCO)CCCOc1ccc2c(Nc3cc(CC(=O)Nc4cccc(F)c4)[nH]n3)ncnc2c1 [AZD2811] (first compound max 1 µM, 7x7, partner max 1 µM)
Bliss excess (M059J (Glioblastoma)): -0.0165 | Bliss excess [1]: -0.0243

CCN(CCO)CCCOc1ccc2c(Nc3cc(CC(=O)Nc4cccc(F)c4)[nH]n3)ncnc2c1 [AZD2811] + O=C(c1cc(Cc2n[nH]c(=O)c3ccccc23)ccc1F)N1CCN(C(=O)C2CC2)CC1 [Olaparib] (first compound max 1 µM, 7x7, partner max 10 µM)
Bliss excess (M059J (Glioblastoma)): -0.0213 | Bliss excess [1]: -0.0231

Cc1c2c(nn1C)CSCc1cc(n(C)n1)CSc1cc(c3ccccc3c1)OCCCc1c(C(=O)O)n(C)c3c-2c(Cl)ccc13 [AZD5991] + C1CN(CCC1(C(=O)N[C@@H](CCO)C2=CC=C(C=C2)Cl)N)C3=NC=NC4=C3C=CN4 [Capivasertib] (first compound max 1 µM, 7x7, partner max 3 µM)
Bliss excess (M059J (Glioblastoma)): -0.101 | Bliss excess [1]: -0.0404

CN(CCO)CC[C@H](CSc1ccccc1)Nc1ccc(S(=O)(=O)NC(=O)c2ccc(N3CCC([C@@H](O)c4ccccc4-c4ccc(Cl)cc4)CC3)cc2)cc1S(=O)(=O)C(F)(F)F [AZD4320] + CN(C)CCCOc1ccc(-c2ccc3ncc4c(c3c2)n(C2CCOCC2)c(=O)n4C)cn1 [AZD0156] (first compound max 1 µM, 7x7, partner max 1 µM)
Bliss excess (M059J (Glioblastoma)): 0.0015 | Bliss excess [1]: -0.0266

CCc1c2c(nc3ccc(O)cc13)-c1cc3c(c(=O)n1C2)COC(=O)[C@]3(O)CC [SN-38] + CN(C)CCCOc1ccc(-c2ccc3ncc4c(c3c2)n(C2CCOCC2)c(=O)n4C)cn1 [AZD0156] (first compound max 0.3 µM, 7x7, partner max 1 µM)
Bliss excess (M059J (Glioblastoma)): -0.0104 | Bliss excess [1]: -0.0306

COc1cccc(OCCCN)c1-c1cc(Nc2cnc(C#N)cn2)n[nH]1 [Prexasertib] + O=C(c1cc(Cc2n[nH]c(=O)c3ccccc23)ccc1F)N1CCN(C(=O)C2CC2)CC1 [Olaparib] (first compound max 1 µM, 7x7, partner max 10 µM)
Bliss excess (M059J (Glioblastoma)): -0.0643 | Bliss excess [1]: -0.0355

CCN(CCO)CCCOc1ccc2c(Nc3cc(CC(=O)Nc4cccc(F)c4)[nH]n3)ncnc2c1 [AZD2811] + C[C@@H]1COCCN1C2=NC(=NC(=C2)C3(CC3)[S@](=N)(=O)C)C4=C5C=CNC5=NC=C4 [AZD6738] (first compound max 1 µM, 7x7, partner max 10 µM)
Bliss excess (M059J (Glioblastoma)): -0.0138 | Bliss excess [1]: -0.061

Cc1cc2ncnn2cc1Nc1ncc2c(n1)n(C1CCOCC1)c(=O)n2C [AZD7648] + C[C@@H]1COCCN1C2=NC(=NC(=C2)C3(CC3)[S@](=N)(=O)C)C4=C5C=CNC5=NC=C4 [AZD6738] (first compound max 10 µM, 7x7, partner max 10 µM)
Bliss excess (M059J (Glioblastoma)): 0.0282 | Bliss excess [1]: -0.0161

CC1(C)CCC(CN2CCN(c3ccc(C(=O)NS(=O)(=O)c4ccc(NCC5CCOCC5)c([N+](=O)[O-])c4)c(Oc4cnc5[nH]ccc5c4)c3)CC2)=C(c2ccc(Cl)cc2)C1 [Venetoclax] + CN(C)CCCOc1ccc(-c2ccc3ncc4c(c3c2)n(C2CCOCC2)c(=O)n4C)cn1 [AZD0156] (first compound max 1 µM, 7x7, partner max 1 µM)
Bliss excess (M059J (Glioblastoma)): -0.0173 | Bliss excess [1]: -0.0363

COc1cccc(OCCCN)c1-c1cc(Nc2cnc(C#N)cn2)n[nH]1 [Prexasertib] + CN(C)CCCOc1ccc(-c2ccc3ncc4c(c3c2)n(C2CCOCC2)c(=O)n4C)cn1 [AZD0156] (first compound max 1 µM, 7x7, partner max 1 µM)
Bliss excess (M059J (Glioblastoma)): -0.0826 | Bliss excess [1]: -0.0352

Cc1cc2ncnn2cc1Nc1ncc2c(n1)n(C1CCOCC1)c(=O)n2C [AZD7648] + O=C(c1cc(Cc2n[nH]c(=O)c3ccccc23)ccc1F)N1CCN(C(=O)C2CC2)CC1 [Olaparib] (first compound max 10 µM, 7x7, partner max 10 µM)
Bliss excess (M059J (Glioblastoma)): -0.097 | Bliss excess [1]: -0.0263

CC1(C)CCC(CN2CCN(c3ccc(C(=O)NS(=O)(=O)c4ccc(NCC5CCOCC5)c([N+](=O)[O-])c4)c(Oc4cnc5[nH]ccc5c4)c3)CC2)=C(c2ccc(Cl)cc2)C1 [Venetoclax] + C[C@@H](Nc1cc(F)cc(F)c1)c1cc(C(=O)N(C)C)cc2c(=O)cc(N3CCOCC3)oc12 [AZD8186] (first compound max 1 µM, 7x7, partner max 3 µM)
Bliss excess (M059J (Glioblastoma)): -0.0141 | Bliss excess [1]: 0.0065

CN(CCO)CC[C@H](CSc1ccccc1)Nc1ccc(S(=O)(=O)NC(=O)c2ccc(N3CCC([C@@H](O)c4ccccc4-c4ccc(Cl)cc4)CC3)cc2)cc1S(=O)(=O)C(F)(F)F [AZD4320] + Cn1cnc2c(F)c(Nc3ccc(Br)cc3Cl)c(C(=O)NOCCO)cc21 [Selumetinib] (first compound max 1 µM, 7x7, partner max 3 µM)
Bliss excess (M059J (Glioblastoma)): -0.0289 | Bliss excess [1]: -0.0148

Cc1c2c(nn1C)CSCc1cc(n(C)n1)CSc1cc(c3ccccc3c1)OCCCc1c(C(=O)O)n(C)c3c-2c(Cl)ccc13 [AZD5991] + CC1(C)CCC(CN2CCN(c3ccc(C(=O)NS(=O)(=O)c4ccc(NCC5CCOCC5)c([N+](=O)[O-])c4)c(Oc4cnc5[nH]ccc5c4)c3)CC2)=C(c2ccc(Cl)cc2)C1 [Venetoclax] (first compound max 1 µM, 7x7, partner max 1 µM)
Bliss excess (M059J (Glioblastoma)): -0.0539 | Bliss excess [1]: -0.0312

CC1(C)CCC(CN2CCN(c3ccc(C(=O)NS(=O)(=O)c4ccc(NCC5CCOCC5)c([N+](=O)[O-])c4)c(Oc4cnc5[nH]ccc5c4)c3)CC2)=C(c2ccc(Cl)cc2)C1 [Venetoclax] + COc1cc(Nc2ncc3c(n2)-c2ccc(Cl)cc2C(c2c(F)cccc2OC)=NC3)ccc1C(=O)O [Alisertib] (first compound max 1 µM, 7x7, partner max 10 µM)
Bliss excess (M059J (Glioblastoma)): 0.0401 | Bliss excess [1]: -0.0536

COc1cccc(OCCCN)c1-c1cc(Nc2cnc(C#N)cn2)n[nH]1 [Prexasertib] + C=CCn1c(=O)c2cnc(Nc3ccc(N4CCN(C)CC4)cc3)nc2n1-c1cccc(C(C)(C)O)n1 [AZD1775] (first compound max 1 µM, partner max 1 µM)
Bliss excess (M059J (Glioblastoma)): 0.178 | Bliss excess [1]: 0.0469

Cc1c2c(nn1C)CSCc1cc(n(C)n1)CSc1cc(c3ccccc3c1)OCCCc1c(C(=O)O)n(C)c3c-2c(Cl)ccc13 [AZD5991] + C[C@@H](Nc1cc(F)cc(F)c1)c1cc(C(=O)N(C)C)cc2c(=O)cc(N3CCOCC3)oc12 [AZD8186] (first compound max 1 µM, 7x7, partner max 3 µM)
Bliss excess (M059J (Glioblastoma)): -0.0842 | Bliss excess [1]: 0.0051

CN(CCO)CC[C@H](CSc1ccccc1)Nc1ccc(S(=O)(=O)NC(=O)c2ccc(N3CCC([C@@H](O)c4ccccc4-c4ccc(Cl)cc4)CC3)cc2)cc1S(=O)(=O)C(F)(F)F [AZD4320] + C=CCn1c(=O)c2cnc(Nc3ccc(N4CCN(C)CC4)cc3)nc2n1-c1cccc(C(C)(C)O)n1 [AZD1775] (first compound max 1 µM, partner max 1 µM)
Bliss excess (M059J (Glioblastoma)): 0.0448 | Bliss excess [1]: -0.0525

CN(C)CCCOc1ccc(-c2ccc3ncc4c(c3c2)n(C2CCOCC2)c(=O)n4C)cn1 [AZD0156] + C=CCn1c(=O)c2cnc(Nc3ccc(N4CCN(C)CC4)cc3)nc2n1-c1cccc(C(C)(C)O)n1 [AZD1775] (first compound max 1 µM, partner max 1 µM)
Bliss excess (M059J (Glioblastoma)): -0.11 | Bliss excess [1]: -0.0501

C[C@@H]1COCCN1c1cc(C2([S@](C)(=N)=O)CC2)nc(-c2ccnc3[nH]ccc23)n1 [AZD6738] + O=C(c1cc(Cc2n[nH]c(=O)c3ccccc23)ccc1F)N1CCN(C(=O)C2CC2)CC1 [Olaparib] (first compound max 10 µM, 7x7, partner max 10 µM)
Bliss excess (M059J (Glioblastoma)): 0.0113 | Bliss excess [1]: -0.0095

Cc1cc2ncnn2cc1Nc1ncc2c(n1)n(C1CCOCC1)c(=O)n2C [AZD7648] + CCN(CCO)CCCOc1ccc2c(Nc3cc(CC(=O)Nc4cccc(F)c4)[nH]n3)ncnc2c1 [AZD2811] (first compound max 10 µM, 7x7, partner max 1 µM)
Bliss excess (M059J (Glioblastoma)): -0.0551 | Bliss excess [1]: -0.0346

Cc1c2c(nn1C)CSCc1cc(n(C)n1)CSc1cc(c3ccccc3c1)OCCCc1c(C(=O)O)n(C)c3c-2c(Cl)ccc13 [AZD5991] + CN(C)CCCOc1ccc(-c2ccc3ncc4c(c3c2)n(C2CCOCC2)c(=O)n4C)cn1 [AZD0156] (first compound max 1 µM, 7x7, partner max 1 µM)
Bliss excess (M059J (Glioblastoma)): 0.006

CC(=O)Nc1cccc(-n2c(=O)n(C3CC3)c(=O)c3c(Nc4ccc(I)cc4F)n(C)c(=O)c(C)c32)c1 [Trametinib] + Cc1nc(-c2cn3c(n2)-c2ccc(-c4cnn(C(C)(C)C(N)=O)c4)cc2OCC3)n(C(C)C)n1 [Taselisib] (first compound max 1 µM, 7x7, partner max 10 µM)
Bliss excess (M059J (Glioblastoma)): 0.0493 | Bliss excess [1]: -0.0138

COc1cccc2c1C(=O)c1c(O)c3c(c(O)c1C2=O)C[C@@](O)(C(=O)CO)C[C@@H]3O[C@H]1C[C@H](N)[C@H](O)[C@H](C)O1 [Doxorubicin] + Cc1cc2ncnn2cc1Nc1ncc2c(n1)n(C1CCOCC1)c(=O)n2C [AZD7648] (first compound max 1 µM, 7x7, partner max 10 µM)
Bliss excess (M059J (Glioblastoma)): -0.0255 | Bliss excess [1]: 0.0175

CN(CCO)CC[C@H](CSc1ccccc1)Nc1ccc(S(=O)(=O)NC(=O)c2ccc(N3CCC([C@@H](O)c4ccccc4-c4ccc(Cl)cc4)CC3)cc2)cc1S(=O)(=O)C(F)(F)F [AZD4320] + C[C@@H]1COCCN1C2=NC(=NC(=C2)C3(CC3)[S@](=N)(=O)C)C4=C5C=CNC5=NC=C4 [AZD6738] (first compound max 1 µM, 7x7, partner max 10 µM)
Bliss excess [1]: -0.0367

COc1nnc2ccc(N3CCC(c4ccc(OCCN5CCN(C)C(=O)[C@H]5C)cc4)CC3)nn12 [AZD5153] + CN(CC[C@H](CSC1=CC=CC=C1)NC2=C(C=C(C=C2)S(=O)(=O)NC(=O)C3=CC=C(C=C3)N4CCC(CC4)[C@H](C5=CC=CC=C5C6=CC=C(C=C6)Cl)O)S(=O)(=O)C(F)(F)F)CCO [AZD4320] (first compound max 1 µM, 7x7, partner max 1 µM)
Bliss excess [1]: 0.0691

CCc1c2c(nc3ccc(O)cc13)-c1cc3c(c(=O)n1C2)COC(=O)[C@]3(O)CC [SN-38] + O=C(c1cc(Cc2n[nH]c(=O)c3ccccc23)ccc1F)N1CCN(C(=O)C2CC2)CC1 [Olaparib] (first compound max 0.3 µM, 7x7, partner max 10 µM)
Bliss excess (M059J (Glioblastoma)): 0.0784
